Measurements from patent US20100184699A1, “Peptide Derived From Prostate-Related Protein As Cancer Vaccine Candidate For Prostate Cancer Patient Who Is Positive For Hla-A3 Super-Type Allele Molecule” (priority 2005, published 2010).
“And” between values parts separate entries of the source, which are not always exact repeats. Equal values may be shown once. Read-outs that look alike come from different tables or passages of the source.

Legend:
[1] = system: peptide-specific IgG in plasma of prostate cancer patients and healthy donors; experiment: Detection of peptide-specific IgG in plasma by ELISA; assay type: binding, human; conditions: for IgG reactive to peptide in plasma: 1:100-diluted plasma
[2] = system: C1R-A11, -A31 or -A33 cells pulsed with corresponding peptide; experiment: Induction of peptide-specific CTLs from PBMCs (IFN-γ ELISA); assay type: cell-based, human; conditions: for IFN-γ production, HIV peptide background subtracted: day 15, significant values only
[3] = Prostate cancer patient 12, A11
[4] = Prostate cancer patient 17, A33
[5] = Prostate cancer patient 19, A33
[6] = Prostate cancer patient 20, A33
[7] = Prostate cancer patient 13, A11
[8] = Prostate cancer patient 14, A33

Substance | IgG reactive to peptide in plasma, Total (positive/tested) ([1]; Healthy donors) | IgG reactive to peptide in plasma, Total (positive/tested) ([1]; Prostate cancer patients) | IgG reactive to peptide in plasma ([1]; Prostate cancer patient 4, A31) | IgG reactive to peptide in plasma ([1]; Prostate cancer patient 5, A31) | IgG reactive to peptide in plasma ([1]; Prostate cancer patient 6, A31) | IgG reactive to peptide in plasma ([1]; Prostate cancer patient 8, A11) | IgG reactive to peptide in plasma ([1]; Prostate cancer patient 9, A11) | IgG reactive to peptide in plasma [1, 3] | IgG reactive to peptide in plasma [1, 6] | IgG reactive to peptide in plasma [1, 8] | also measured
QPWQVLVASR (PSA 36-45) [PSA-derived peptide] | 2/8 | 0/20 |  |  |  |  |  |  |  |  | IgG reactive to peptide in plasma ([1]; Healthy donor 4, A31): + (IgG reactive to a corresponding peptide was judged to be positive when a difference of the optical density (OD) in a 1:100-diluted plasma was more than 100); IgG reactive to peptide in plasma ([1]; Healthy donor 12, A31): + (IgG reactive to a corresponding peptide was judged to be positive when a difference of the optical density (OD) in a 1:100-diluted plasma was more than 100); frequency of detection of peptide-reactive IgG ([1]; plasma of prostate cancer patients, compared within PSA, PAP or PSMA peptides): less frequently; Total (positive / tested) [2]: 1/13 and 1/9
NVKNLYEKVK (Flu-derived peptide) [reference compound] |  |  |  |  |  |  |  |  |  |  | Total (positive / tested) [2]: 8/13 and 5/9
LLGPGRPYR (TRP2-derived peptide) [reference compound] |  |  |  |  |  |  |  |  |  |  | IFN-γ production, HIV peptide background subtracted ([2]; healthy donor 1, A31): 143 pg/mL; IFN-γ production, HIV peptide background subtracted ([2]; healthy donor 4, A31): 180 pg/mL; IFN-γ production, HIV peptide background subtracted ([2]; healthy donor 6, A33): 90 pg/mL; IFN-γ production, HIV peptide background subtracted ([2]; healthy donor 9, A11): 182 pg/mL; IFN-γ production, HIV peptide background subtracted ([2]; healthy donor 10, A11): 207 pg/mL; IFN-γ production, HIV peptide background subtracted ([2]; healthy donor 14, A11): 94 pg/mL; Total (positive / tested) ([2]; healthy donors): 6/9; IFN-γ production, HIV peptide background subtracted ([2]; prostate cancer patient 9, A11): 155 pg/mL; IFN-γ production, HIV peptide background subtracted ([2]; prostate cancer patient 15, A33): 292 pg/mL; IFN-γ production, HIV peptide background subtracted ([2]; prostate cancer patient 17, A33): 1093 pg/mL; IFN-γ production, HIV peptide background subtracted ([2]; prostate cancer patient 19, A33): 115 pg/mL; IFN-γ production, HIV peptide background subtracted ([2]; prostate cancer patient 22, A31): 115 pg/mL; Total (positive / tested) ([2]; prostate cancer patients): 5/13
FQRLGIASGR (PSMA 525-534) [PSMA-derived peptide] | 0/9 | 11/20 | + (IgG reactive to a corresponding peptide was judged to be positive when a difference of the optical density (OD) in a 1:100-diluted plasma was more than 100) | + (IgG reactive to a corresponding peptide was judged to be positive when a difference of the optical density (OD) in a 1:100-diluted plasma was more than 100) | + (IgG reactive to a corresponding peptide was judged to be positive when a difference of the optical density (OD) in a 1:100-diluted plasma was more than 100) | + (IgG reactive to a corresponding peptide was judged to be positive when a difference of the optical density (OD) in a 1:100-diluted plasma was more than 100) | + (IgG reactive to a corresponding peptide was judged to be positive when a difference of the optical density (OD) in a 1:100-diluted plasma was more than 100) | + (IgG reactive to a corresponding peptide was judged to be positive when a difference of the optical density (OD) in a 1:100-diluted plasma was more than 100) | + (IgG reactive to a corresponding peptide was judged to be positive when a difference of the optical density (OD) in a 1:100-diluted plasma was more than 100) |  | IgG reactive to peptide in plasma ([1]; Prostate cancer patient 2, A31): + (IgG reactive to a corresponding peptide was judged to be positive when a difference of the optical density (OD) in a 1:100-diluted plasma was more than 100); IgG reactive to peptide in plasma ([1]; Prostate cancer patient 16, A33): + (IgG reactive to a corresponding peptide was judged to be positive when a difference of the optical density (OD) in a 1:100-diluted plasma was more than 100); IgG reactive to peptide in plasma [1, 4]: + (IgG reactive to a corresponding peptide was judged to be positive when a difference of the optical density (OD) in a 1:100-diluted plasma was more than 100); IgG reactive to peptide in plasma [1, 5]: + (IgG reactive to a corresponding peptide was judged to be positive when a difference of the optical density (OD) in a 1:100-diluted plasma was more than 100)
RIYNVIGTLR [PSMA 354-363] | 0/9 | 2/20 |  |  | + (IgG reactive to a corresponding peptide was judged to be positive when a difference of the optical density (OD) in a 1:100-diluted plasma was more than 100) |  |  |  | + (IgG reactive to a corresponding peptide was judged to be positive when a difference of the optical density (OD) in a 1:100-diluted plasma was more than 100) |  | 
PSMA 590-698 | 0/9 | 11/20 | + (IgG reactive to a corresponding peptide was judged to be positive when a difference of the optical density (OD) in a 1:100-diluted plasma was more than 100) | + (IgG reactive to a corresponding peptide was judged to be positive when a difference of the optical density (OD) in a 1:100-diluted plasma was more than 100) | + (IgG reactive to a corresponding peptide was judged to be positive when a difference of the optical density (OD) in a 1:100-diluted plasma was more than 100) | + (IgG reactive to a corresponding peptide was judged to be positive when a difference of the optical density (OD) in a 1:100-diluted plasma was more than 100) | + (IgG reactive to a corresponding peptide was judged to be positive when a difference of the optical density (OD) in a 1:100-diluted plasma was more than 100) | + (IgG reactive to a corresponding peptide was judged to be positive when a difference of the optical density (OD) in a 1:100-diluted plasma was more than 100) | + (IgG reactive to a corresponding peptide was judged to be positive when a difference of the optical density (OD) in a 1:100-diluted plasma was more than 100) | + (IgG reactive to a corresponding peptide was judged to be positive when a difference of the optical density (OD) in a 1:100-diluted plasma was more than 100) | IgG reactive to peptide in plasma [1, 7]: + (IgG reactive to a corresponding peptide was judged to be positive when a difference of the optical density (OD) in a 1:100-diluted plasma was more than 100); IgG reactive to peptide in plasma [1, 4]: + (IgG reactive to a corresponding peptide was judged to be positive when a difference of the optical density (OD) in a 1:100-diluted plasma was more than 100); IgG reactive to peptide in plasma [1, 5]: + (IgG reactive to a corresponding peptide was judged to be positive when a difference of the optical density (OD) in a 1:100-diluted plasma was more than 100)
PSMA 370-378 (RYVILGGHR; PSMA 370-378) | 0/9 | 2/20 |  | + (IgG reactive to a corresponding peptide was judged to be positive when a difference of the optical density (OD) in a 1:100-diluted plasma was more than 100) |  |  |  |  | + (IgG reactive to a corresponding peptide was judged to be positive when a difference of the optical density (OD) in a 1:100-diluted plasma was more than 100) |  | 
SYKHEQVYIR (PAP 96-105) [PAP-derived peptide] | 1/9 | 1/20 |  |  |  |  |  |  |  | + (IgG reactive to a corresponding peptide was judged to be positive when a difference of the optical density (OD) in a 1:100-diluted plasma was more than 100) | 
GLPDRPFYR [PSMA 680-688] | 0/9 | 12/20 | + (IgG reactive to a corresponding peptide was judged to be positive when a difference of the optical density (OD) in a 1:100-diluted plasma was more than 100) |  | + (IgG reactive to a corresponding peptide was judged to be positive when a difference of the optical density (OD) in a 1:100-diluted plasma was more than 100) | + (IgG reactive to a corresponding peptide was judged to be positive when a difference of the optical density (OD) in a 1:100-diluted plasma was more than 100) | + (IgG reactive to a corresponding peptide was judged to be positive when a difference of the optical density (OD) in a 1:100-diluted plasma was more than 100) | + (IgG reactive to a corresponding peptide was judged to be positive when a difference of the optical density (OD) in a 1:100-diluted plasma was more than 100) | + (IgG reactive to a corresponding peptide was judged to be positive when a difference of the optical density (OD) in a 1:100-diluted plasma was more than 100) | + (IgG reactive to a corresponding peptide was judged to be positive when a difference of the optical density (OD) in a 1:100-diluted plasma was more than 100) | IgG reactive to peptide in plasma ([1]; Prostate cancer patient 2, A31): + (IgG reactive to a corresponding peptide was judged to be positive when a difference of the optical density (OD) in a 1:100-diluted plasma was more than 100); IgG reactive to peptide in plasma ([1]; Prostate cancer patient 7, A11): + (IgG reactive to a corresponding peptide was judged to be positive when a difference of the optical density (OD) in a 1:100-diluted plasma was more than 100); IgG reactive to peptide in plasma ([1]; Prostate cancer patient 10, A11): + (IgG reactive to a corresponding peptide was judged to be positive when a difference of the optical density (OD) in a 1:100-diluted plasma was more than 100); IgG reactive to peptide in plasma [1, 7]: + (IgG reactive to a corresponding peptide was judged to be positive when a difference of the optical density (OD) in a 1:100-diluted plasma was more than 100)
